One experiment deals with xanthine oxidase (XO). In words: in vitro xanthine oxidase (XO) inhibiting action. Format: biochemical. Conditions: 4 U/L XO in PBS pH 7.5, xanthine substrate, absorbance at 295 nm after 30 minutes; mean±standard error. The method, then: The in vitro xanthine oxidase (XO) inhibiting action was studied on 210 kinds of cyclic dipeptides, linear dipeptides Tyr-Gly and Gly-Tyr, and an amino acid Tyr. […] Thereafter, 20 μL of a 250 μM xanthine solution previously dissolved in the PBS was added thereto, and the absorbance after 30 minutes was measured using a spectrophotometer (Synegy HT, manufactured by Bio Tek). The XO inhibition rate (%) at each concentration was calculated by the following calculation formula, to obtain activities of inhibiting XO (IC50 values). […] [formula] • wherein A: the absorbance of an enzyme-added, sample-non-added group at 295 nm; • B: the absorbance of an enzyme-non-added, sample-non-added group at 295 nm; • C: the absorbance of an enzyme-added, sample-added group at 295 nm; and • D: the absorbance of an enzyme-non-added, sample-added group at 295 nm.

The next experiment deals with hyperuricemic mice. In words: action of lowering serum uric acid levels for hyperuricemic mice (potassium oxonate model). Format: in vivo, BALBc mice. Particulars: FIG. 2. The method, then: As to the animals used, male 7-week old BALBc mice were purchased from CLEA Japan, Inc., and subjected to an experiment after a one-week period of conditioning. The animals were bred in a breeding room with air-conditioning facilities (temperature: 23.5°±1.0° C., humidity: 55±10 RH %, the number of ventilation: 12 to 15 times/hour, illuminated: from 7:00 to 19:00 each day). During the period of conditioning, the mice were allowed to take a commercially available feed (CE-2, manufactured by CLEA Japan, Inc.) and distilled water ad libitum.
Oxonic acid is a substance that raises a blood uric acid level by inhibiting a urikase, a metabolic enzyme for uric acid. In view of the above, potassium oxonate (PO) was administered, thereby generating hyperuricemic model animals (see, Planta Med 2009; 75:302-306). […] In all the groups that include PO administration, PO previously suspended in a 0.5% aqueous CMC-Na solution was administered at a concentration of 250 mg/kg, and Normal Group was administered with a 0.5% aqueous CMC-Na solution, each being administered intraperitoneally. […] After 2 hours from the administration with PO, the blood was collected from the abdominal vena cava under anesthesia. After blood removal, the liver was harvested. The collected blood was allowed to stand at room temperature for 45 minutes, and centrifuged at 8,000 rpm for 10 minutes to recover sera. Here, the sera and the liver were preserved at −80° C. until the measurements were carried out.
The serum uric acid level was measured using 7180 Clinical Analyzer (manufactured by Hitachi Technologies).
The actions of lowering serum uric acid levels of soybean peptide heat-treated products were studied using hyperuricemic model animals, in the same manner as in Test Example 2. […] For each of the above-mentioned groups, the administration and the blood collection were carried out in the same manner as in Test Example 2 to measure a serum uric acid level. Here, the mixture of the 8 kinds of cyclic dipeptides prepared by using synthesized products of Cyclo(Ser-Tyr), Cyclo(Tyr-Gly), Cyclo(Tyr-Tyr), Cyclo(Phe-Tyr), Cyclo(Leu-Tyr), Cyclo(Val-Tyr), Cyclo(Ile-Tyr), and Cyclo(Asn-Tyr), in amounts to be contained in the soybean peptide heat-treated product, was used.
The actions of lowering serum uric acid levels of soybean peptide heat-treated products according to dose were studied using hyperuricemic model animals, in the same manner as in Test Example 3. […] For each of the above-mentioned groups, the administration and the blood collection were carried out in the same manner as in Test Example 2 to measure a serum uric acid level.

What is called IC50 is the point on the concentration scale where inhibition reaches its midpoint. Regarding `NC(=O)CC1NC(=O)C(Cc2ccc(O)cc2)NC1=O` (centres unmarked) [Cyclo(Asn-Tyr), cycloasparaginyltyrosine], the IC50 against xanthine oxidase (XO) came to 113 ± 11.4 µM.
Consider `O=C1CNC(=O)C(Cc2ccc(O)cc2)N1` (centres unmarked) [Cyclo(Tyr-Gly), cyclotyrosylglycine], for which the “serum uric acid level, effect versus PO Group” value with hyperuricemic mice (30 mg/kg oral) and in the experiment on hyperuricemic mice (100 mg/kg oral) was “significant difference” each time. Besides, the “action of lowering serum uric acid level” value in the experiment on hyperuricemic mice (Cyclo(Tyr-Gly) 10, 30, 100 mg/kg oral, PO 250 mg/kg i.p.) is “has an action of lowering a uric acid level in a dose-dependent manner”.
At xanthine oxidase (XO), `O=C(O)CC1NC(=O)C(Cc2ccc(O)cc2)NC1=O` (centres unmarked) [Cyclo(Asp-Tyr), cycloaspartyltyrosine] gave an IC50 of 172 ± 13.5 µM.
In the case of `Oc1ncnc2[nH]ncc12` [Allopurinol, reference compound], the “serum uric acid level, effect versus PO Group” value in the experiment with hyperuricemic mice (1 mg/kg oral) is reported as “significant difference”.
The molecule `O=C1NC(Cc2ccc(O)cc2)C(=O)NC1Cc1ccccc1` (centres unmarked) [Cyclo(Phe-Tyr), cyclophenylalanyltyrosine] displayed a half-inhibitory concentration (IC50) against xanthine oxidase (XO) of 22.2 ± 0.8 µM.
On the same count and under the same terms, next, `O=C1NC(Cc2ccc(O)cc2)C(=O)NC1Cc1ccc(O)cc1` (centres unmarked) [Cyclo(Tyr-Tyr), cyclotyrosyltyrosine]: 29.5 ± 2.9 µM.

(Values after patent publication US9650415B2, “Uric acid-lowering agent” (Suntory Holdings Limited, priority 2014, dated 2017).)
